This data set is described as follows: Metabolic stability in male mouse liver microsomes. The format is in vitro ADME. A general note: Liver microsomes are a subcellular fraction often used to study metabolism.

From paper PMC13181795, “Structural Basis for BD1-Preferring 2,4-Disubstituted Pyrimidine BRDT Inhibitors” (Journal of Medicinal Chemistry, 2026) come the findings set out here.

As to `O=C(O)Cc1ccccc1Nc1c(Cl)cccc1Cl` [Diclofenac], the “Scaled-up CLint” value stood at 130 mL/min/kg.
